Assays:
[1] = molecular target: T1, human orexin-2 receptor (Homo sapiens, UniProt O43614); assay: Intracellular calcium measurement (FLIPR Tetra), orexin receptor antagonistic activity, OX2; assay type: cell-based; details: CHO cells expressing human orexin-2 receptor, 3 nM orexin-A
T1 construct: expressed in transfected cells; host or cells: CHO (Chinese hamster ovary) cells, kept under G418 selection
T1 sequence (O43614 1-444): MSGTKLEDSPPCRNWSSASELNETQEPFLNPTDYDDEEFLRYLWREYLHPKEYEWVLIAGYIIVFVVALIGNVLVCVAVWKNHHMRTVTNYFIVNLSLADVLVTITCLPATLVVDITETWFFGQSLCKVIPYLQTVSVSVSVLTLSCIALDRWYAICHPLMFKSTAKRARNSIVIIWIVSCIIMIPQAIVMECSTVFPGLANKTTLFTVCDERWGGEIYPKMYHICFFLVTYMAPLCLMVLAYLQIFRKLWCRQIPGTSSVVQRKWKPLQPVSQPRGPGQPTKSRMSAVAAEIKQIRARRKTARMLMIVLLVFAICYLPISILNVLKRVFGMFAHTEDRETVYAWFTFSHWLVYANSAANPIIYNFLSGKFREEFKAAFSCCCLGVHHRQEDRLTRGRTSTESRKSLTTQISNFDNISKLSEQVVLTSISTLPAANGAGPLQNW
In short: (§1)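 Recombinant CHO cells expressing human OX1 or OX2, loaded with fluo-4 AM plus probenecid, were preincubated with antagonist 10 min, then stimulated with 3 nM human orexin-A. Peak fluorescence was compared with vehicle; IC50 derived, sometimes normalized to an on-plate reference compound; two pipetting/cell-splitting conditions were used.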

[2] = molecular target: T2, human orexin-1 receptor (Homo sapiens, UniProt O43613); assay: Intracellular calcium measurement (FLIPR Tetra), orexin receptor antagonistic activity, OX1; assay type: cell-based; details: CHO cells expressing human orexin-1 receptor, 3 nM orexin-A
T2 construct: expressed in transfected cells; host or cells: CHO (Chinese hamster ovary) cells, kept under G418 selection
T2 sequence (O43613 1-425): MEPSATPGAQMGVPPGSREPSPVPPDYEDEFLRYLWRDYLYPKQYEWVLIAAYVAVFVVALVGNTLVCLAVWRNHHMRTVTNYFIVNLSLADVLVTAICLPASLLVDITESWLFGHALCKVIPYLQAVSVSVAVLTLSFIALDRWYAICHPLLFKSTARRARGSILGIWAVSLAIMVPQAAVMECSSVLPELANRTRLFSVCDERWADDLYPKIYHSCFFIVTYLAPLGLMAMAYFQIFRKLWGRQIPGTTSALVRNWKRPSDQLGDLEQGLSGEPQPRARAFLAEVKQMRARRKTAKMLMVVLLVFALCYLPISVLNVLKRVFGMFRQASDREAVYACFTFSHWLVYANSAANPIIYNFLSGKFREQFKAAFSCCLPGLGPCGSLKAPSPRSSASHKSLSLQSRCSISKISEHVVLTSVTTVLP
In short: as §1

[3] = conditions B, normalized (*) using IC50 of on-plate reference compound

IC50 ([1]; conditions B)	IC50 ([2]; conditions B)	IC50 [1, 3]	IC50 [2, 3]	Compound	also measured
18 nM	9 nM	–	–	Cc1cccc(-c2sc(N)nc2C(=O)N(CCc2c[nH]c3c(C)cccc23)CC2CC2)c1 [Example 230, 2-Amino-5-m-tolyl-thiazole-4-carboxylic acid cyclopropylmethyl-[2-(7-methyl-1H-indol-3-yl)-ethyl]-amide]	–
6 nM	119 nM	–	–	COc1ccc(CCN(CC(F)(F)F)C(=O)c2nc(C)sc2-c2ccc(C)c(C)c2)cc1OC [Example 120, 5-(3,4-Dimethyl-phenyl)-2-methyl-thiazole-4-carboxylic acid [2-(3,4-dimethoxy-phenyl)-ethyl]-(2,2,2-trifluoro-ethyl)-amide]	–
5 nM	234 nM	–	–	COc1ccc(CCN(CC2CC2)C(=O)c2ccncc2-c2cccc(C)c2)cc1OC [Example 386, N-Cyclopropylmethyl-N-[2-(3,4-dimethoxy-phenyl)-ethyl]-3-m-tolyl-isonicotinamide]	–
4 nM	149 nM	–	–	COc1ccc(CCN(CC(F)(F)F)C(=O)c2nc(N)sc2-c2cccc(C)c2)cc1OC [Example 119, 2-Amino-5-m-tolyl-thiazole-4-carboxylic acid [2-(3,4-dimethoxy-phenyl)-ethyl]-(2,2,2-trifluoro-ethyl)-amide]	–
–	–	36 nM	18 nM	COc1ccc(-c2sc(C)nc2C(=O)N(CCc2cn(C)c3ccccc23)CC2CC2)cn1 [Example 341, 5-(6-Methoxy-pyridin-3-yl)-2-methyl-thiazole-4-carboxylic acid cyclopropylmethyl-[2-(1-methyl-1H-indol-3-yl)-ethyl]-amide]	–
7 nM	266 nM	–	–	COc1cccc(-c2ncccc2C(=O)N(CCc2ccc(OC)c(OC)c2)CC2CC2)c1 [Example 397, N-Cyclopropylmethyl-N-[2-(3,4-dimethoxy-phenyl)-ethyl]-2-(3-methoxy-phenyl)-nicotinamide]	–
719 nM	> 10000 nM	–	–	Cc1nc(C(=O)N(CCc2ccc(C(F)(F)F)cc2)CC2CC2)c(-c2ccc(C)c(C)c2)s1 [Example 192, 5-(3,4-Dimethyl-phenyl)-2-methyl-thiazole-4-carboxylic acid cyclopropylmethyl-[2-(4-trifluoromethyl-phenyl)-ethyl]-amide]	–
–	–	50 nM	292 nM	Cc1cncc(-c2sc(C)nc2C(=O)N(CCc2c[nH]c3ccc(F)cc23)CC2CC2)c1 [Example 426, 2-Methyl-5-(5-methyl-pyridin-3-yl)-thiazole-4-carboxylic acid cyclopropylmethyl-[2-(5-fluoro-1H-indol-3-yl)-ethyl]-amide]	–
–	–	12 nM	58 nM	O=C(c1ncccc1-c1cnc2ccccc2c1)N(CCc1c[nH]c2ccc(F)cc12)CC1CC1 [Example 404, 3-Quinolin-3-yl-pyridine-2-carboxylic acid cyclopropylmethyl-[2-(5-fluoro-1H-indol-3-yl)-ethyl]-amide]	–
–	–	70 nM	201 nM	COc1nc(C(=O)N(CCc2c[nH]c3ccc(F)cc23)CC2CC2)c(-c2cccc(C)c2)s1 [Example 275, 2-Methoxy-5-m-tolyl-thiazole-4-carboxylic acid cyclopropylmethyl-[2-(5-fluoro-1H-indol-3-yl)-ethyl]-amide]	–
–	–	12 nM	427 nM	COc1ccc(-c2sc(C)nc2C(=O)N(CCc2c[nH]c3cc4c(cc23)OCO4)CC2CC2)cn1 [Example 382, 5-(6-Methoxy-pyridin-3-yl)-2-methyl-thiazole-4-carboxylic acid cyclopropylmethyl-[2-(5H-[1,3]dioxolo[4,5-f]indol-7-yl)-ethyl]-amide]	–
–	–	35 nM	383 nM	Cc1cccc(-c2oc(C3CC3)nc2C(=O)N(CCc2c[nH]c3ccccc23)CC2CC2)c1 [Example 607, 2-Cyclopropyl-5-m-tolyl-oxazole-4-carboxylic acid cyclopropylmethyl-[2-(1H-indol-3-yl)-ethyl]-amide]	–
12 nM	147 nM	–	–	COc1cc(CCN(CC2CC2)C(=O)c2nc(N)sc2-c2cccc(C)c2)cc(OC)c1OC(C)C [Example 173, 2-Amino-5-m-tolyl-thiazole-4-carboxylic acid cyclopropylmethyl-[2-(4-isopropoxy-3,5-dimethoxy-phenyl)-ethyl]-amide]	–
–	–	17 nM	4 nM	COc1ccc(-c2sc(C)nc2C(=O)N(CCc2c[nH]c3cc(F)ccc23)CC2CC2)cn1 [Example 350, 5-(6-Methoxy-pyridin-3-yl)-2-methyl-thiazole-4-carboxylic acid cyclopropylmethyl-[2-(6-fluoro-1H-indol-3-yl)-ethyl]-amide]	–
–	–	10 nM	163 nM	CCCN(CCc1c[nH]c2ccc(F)cc12)C(=O)c1nccnc1-c1ccc(C)c(C)c1 [Example 292, 3-(3,4-Dimethyl-phenyl)-pyrazine-2-carboxylic acid [2-(5-fluoro-1H-indol-3-yl)-ethyl]-propyl-amide]	–
–	–	66 nM	155 nM	Cc1ccc(-c2scnc2C(=O)N(CCc2c[nH]c3ccc(F)cc23)CC2CC2)cc1C [Example 274, 5-(3,4-Dimethyl-phenyl)-thiazole-4-carboxylic acid cyclopropylmethyl-[2-(5-fluoro-1H-indol-3-yl)-ethyl]-amide]	–
–	–	–	–	COc1ccc(CCN(CC2CC2)C(=O)c2nc(C)sc2-c2cccc(C#N)c2)cc1OC [Example 19, 5-(3-Cyano-phenyl)-2-methyl-thiazole-4-carboxylic acid cyclopropylmethyl-[2-(3,4-dimethoxy-phenyl)-ethyl]-amide]	IC50 ([1]; conditions A): 40 nM; IC50 ([2]; conditions A): 2200 nM
–	–	83 nM	373 nM	COc1nccc(-c2sc(C)nc2C(=O)N(CCc2c[nH]c3ccc(F)cc23)CC2CC2)c1Cl [Example 420, 5-(3-Chloro-2-methoxy-pyridin-4-yl)-2-methyl-thiazole-4-carboxylic acid cyclopropylmethyl-[2-(5-fluoro-1H-indol-3-yl)-ethyl]-amide]	–
–	–	196 nM	421 nM	COC(=O)CN(CCc1c[nH]c2ccc(F)cc12)C(=O)c1cnc(C)nc1-c1ccc(Cl)c(Cl)c1 [Example 604, {[4-(3,4-Dichloro-phenyl)-2-methyl-pyrimidine-5-carbonyl]-[2-(5-fluoro-1H-indol-3-yl)-ethyl]-amino}-acetic acid methyl ester]	–
–	–	526 nM	5260 nM	COc1ccc(-c2cccnc2C(=O)N(CCc2c[nH]c3ccc(F)cc23)CC(N)=O)cn1 [Example 313, 6′-Methoxy-[3,3′]bipyridinyl-2-carboxylic acid carbamoylmethyl-[2-(5-fluoro-1H-indol-3-yl)-ethyl]-amide]	–
–	–	47 nM	180 nM	CSc1cncc(-c2sc(C)nc2C(=O)N(CCc2c[nH]c3ccc(F)cc23)CC2CC2)c1 [Example 424, 2-Methyl-5-(5-methylsulfanyl-pyridin-3-yl)-thiazole-4-carboxylic acid cyclopropylmethyl-[2-(5-fluoro-1H-indol-3-yl)-ethyl]-amide]	–
–	–	–	–	CCc1ccc(-c2sc(C)nc2C(=O)N(CCc2ccc(OC)c(OC)c2)CC2CC2)cc1 [Example 20, 5-(4-Ethyl-phenyl)-2-methyl-thiazole-4-carboxylic acid cyclopropylmethyl-[2-(3,4-dimethoxy-phenyl)-ethyl]-amide]	IC50 ([1]; conditions A): 15 nM; IC50 ([2]; conditions A): 2130 nM
2 nM	18 nM	–	–	CCCN(CCc1ccc(OC)c(OC)c1)C(=O)c1nc(C)sc1-c1ccc(C)c(C)c1 [Example 111, 5-(3,4-Dimethyl-phenyl)-2-methyl-thiazole-4-carboxylic acid [2-(3,4-dimethoxy-phenyl)-ethyl]-propyl-amide]	–
–	–	2 nM	24 nM	COc1ccc(-c2nccnc2C(=O)N(CCc2c[nH]c3c(C)cccc23)CC2CC2)cc1 [Example 436, 3-(4-Methoxy-phenyl)-pyrazine-2-carboxylic acid cyclopropylmethyl-[2-(7-methyl-1H-indol-3-yl)-ethyl]-amide]	–
